Assay results reported in EPA's ToxRefDB 2.

What was measured:
rat [1] = details: Developmental neurotoxicity study; long evans; Injection; Intraperitoneal; dose end: 80 PND; group: cannot be grouped; systemic / in life observation / body weight / offspring (pup) weight + systemic / in life observation / clinical signs / abnormal movements…
dog [2] = details: Chronic toxicity, beagle, Oral, Feed, dose end: 52 week
rabbit = details: Prenatal developmental toxicity study, new zealand white, Oral, Gavage/Intubation, dose end: 19 GD, group: maternal
rat [3] = details: Prenatal developmental toxicity study, other, Oral, Gavage/Intubation, dose end: 16 GD, group: maternal
rat [4] = details: Subchronic oral toxicity in rodents, other, Feed, dose end: 90 day
mouse [5] = details: Subchronic oral toxicity in rodents, cd1, Feed, dose end: 7 week
dog [6] = details: Subchronic oral toxicity in nonrodent, beagle, Feed, dose end: 26 week
mouse [7] = details: Carcinogenicity, cd1, Oral, Feed, dose end: 18 month, group: systemic
dog [8] = details: Subchronic oral toxicity in nonrodent, beagle, Feed, dose end: 103 day
rat [9] = details: Combined chronic toxicity/carcinogenicity, sprague dawley, Oral, Feed, dose end: 24 month
rat [10] = details: Subchronic oral toxicity in rodents, Charles River Crl:CD BR, Feed, dose end: 6 week
rat [11] = details: Developmental neurotoxicity study; long evans; Inhalation; Whole-Body; dose end: 100 PND; group: cannot be grouped; developmental / developmental malformation / bone / incomplete ossification + developmental / developmental malformation / ovary / …
mouse [12] = details: Carcinogenicity; b6c3f1; Oral; Feed; dose end: 80 week; group: systemic; systemic / pathology microscopic / liver / hepatocellular carcinoma
mink = details: Multigenerational reproductive toxicity study, ranch wild brown, Oral, Feed, dose end: 1 generation
rat [13] = details: Carcinogenicity, Osborne-Mendel, Oral, Feed, dose end: 80 week, group: systemic
rat [14] = details: Developmental neurotoxicity study, sprague dawley, Oral, [Not Specified], dose end: 155 PND, group: cannot be grouped
[15] = group: cholinesterase, cholinesterase / cholinesterase / cholinesterase / erythrocyte cholinesterase (che) + cholinesterase / cholinesterase / cholinesterase / …
[16] = group: systemic, systemic / clinical chemistry / albumin / albumin + systemic / clinical chemistry / alkaline phosphatase (alp/alk) / alkaline phosphatase (…
[17] = reproductive / reproductive performance / resorptions / resorptions + systemic / in life observation / body weight / body weight gain + …
[18] = systemic / in life observation / body weight / body weight gain + systemic / in life observation / mortality / mortality + reproductive / …
[19] = systemic / in life observation / body weight / body weight gain + systemic / in life observation / mortality / mortality + systemic / in …
[20] = group: cholinesterase, cholinesterase / cholinesterase / cholinesterase / brain cholinesterase (che) + cholinesterase / cholinesterase / cholinesterase / …
[21] = group: systemic, systemic / in life observation / clinical signs / body surface staining + systemic / in life observation / clinical signs / hunched posture…
[22] = group: cholinesterase, cholinesterase / cholinesterase / cholinesterase / plasma cholinesterase (che)
[23] = group: systemic, systemic / in life observation / body weight / body weight gain
[24] = group: systemic, systemic / in life observation / body weight / body weight gain + systemic / in life observation / mortality / mortality + systemic / in …
[25] = group: systemic, systemic / in life observation / clinical signs / defecation (diarrhea)
[26] = group: systemic, systemic / in life observation / clinical signs / defecation (diarrhea) + systemic / in life observation / clinical signs / distended …
[27] = systemic / in life observation / body weight / body weight gain + systemic / in life observation / clinical signs / fur (altered appearance…
[28] = group: cholinesterase, cholinesterase / cholinesterase / cholinesterase / brain (regional) cholinesterase (che) + cholinesterase / cholinesterase / cholinesterase…
[29] = group: systemic, systemic / clinical chemistry / albumin / albumin + systemic / clinical chemistry / calcium / calcium + systemic / clinical chemistry / …
[30] = group: cholinesterase, cholinesterase / cholinesterase / cholinesterase / erythrocyte cholinesterase (che)
[31] = group: systemic, systemic / clinical chemistry / sodium / sodium
[32] = group: cholinesterase, cholinesterase / cholinesterase / cholinesterase / brain cholinesterase (che)
[33] = group: cholinesterase, cholinesterase / cholinesterase / cholinesterase / brain cholinesterase (che) + cholinesterase / cholinesterase / cholinesterase / plasma …
[34] = group: systemic, systemic / in life observation / body weight / body weight gain + systemic / in life observation / body weight / body weight
[35] = group: offspring, developmental / offspring survival late / [other] / [other] + systemic / in life observation / body weight / offspring (pup) weight
[36] = group: offspring, systemic / in life observation / body weight / offspring (pup) weight
[37] = group: parental, systemic / in life observation / body weight / body weight + systemic / in life observation / clinical signs / [other] + systemic / in life …
[38] = group: reproductive, reproductive / reproductive performance / resorptions / resorptions + reproductive / offspring survival early / dead fetuses / dead fetuses
[39] = systemic / in life observation / clinical signs / palpable mass + systemic / in life observation / clinical signs / vaginal discharge
[40] = systemic / in life observation / clinical signs / palpable mass + systemic / in life observation / clinical signs / vaginal discharge + …
[41] = systemic / clinical chemistry / [other] / [other] + systemic / clinical chemistry / chloride / chloride + systemic / in life observation / …
[42] = systemic / clinical chemistry / chloride / chloride + systemic / in life observation / clinical signs / urination

## N#CCCNCCC#N [3,3'-Iminobispropanenitrile]
Rat [1]
  LEL: 300 mg/kg/day
  LOAEL: > 300 mg/kg/day
  NEL: 150 mg/kg/day
  NOAEL: ≥ 300 mg/kg/day

## CCOP(=S)(OCC)OC(Cl)C(Cl)(Cl)Cl (stereo not given) [Chlorethoxyfos]
Dog [2]; [15]
  LEL: 0.591 mg/kg/day
  LOAEL: 0.591 mg/kg/day
  NEL: 0.065 mg/kg/day
  NOAEL: 0.065 mg/kg/day
Dog [2]; group: systemic, systemic / clinical chemistry / albumin / albumin
  LOAEL: 1.86 mg/kg/day
Dog [2]; [16]
  NEL: 0.065 mg/kg/day
  NOAEL: 0.591 mg/kg/day
Dog [2]; group: systemic, systemic / clinical chemistry / calcium / calcium
  LEL: 0.591 mg/kg/day
rabbit; reproductive / reproductive performance / resorptions / resorptions
  LOAEL: 3.1 mg/kg/day
rabbit; [17]
  LEL: 3.1 mg/kg/day
  NEL: 1.38 mg/kg/day
  NOAEL: 1.38 mg/kg/day
Rat [3]; [18]
  LEL: 0.5 mg/kg/day
  LOAEL: 0.5 mg/kg/day
Rat [3]; [19]
  NEL: 0.25 mg/kg/day
  NOAEL: 0.25 mg/kg/day
Rat [4]; [20]
  LEL: 0.635 mg/kg/day
  LOAEL: > 1.64 mg/kg/day
  NEL: 0.08 mg/kg/day
  NOAEL: ≥ 1.64 mg/kg/day
Rat [4]; [21]
  LEL: 1.23 mg/kg/day
  LOAEL: 1.23 mg/kg/day
  NEL: 0.635 mg/kg/day
  NOAEL: 0.635 mg/kg/day
Mouse [5]; [22]
  LEL: 0.15 mg/kg/day
  LOAEL: 0.15 mg/kg/day
  NEL: 0.015 mg/kg/day
  NOAEL: 0.015 mg/kg/day
Mouse [5]; [23]
  LOAEL: 11.2 mg/kg/day
Mouse [5]; group: systemic, systemic / in life observation / body weight / body weight gain + systemic / in life observation / body weight / body weight + systemic / in…
  LEL: 11.2 mg/kg/day
Mouse [5]; [24]
  NEL: 0.15 mg/kg/day
  NOAEL: 0.15 mg/kg/day
Dog [6]; [22]
  LEL: 0.061 mg/kg/day
  LOAEL: 0.578 mg/kg/day
  NEL: < 0.061 mg/kg/day
Dog [6]; group: cholinesterase, cholinesterase / cholinesterase / cholinesterase / plasma cholinesterase (che) + cholinesterase / cholinesterase / cholinesterase / brain (…
  NOAEL: 0.061 mg/kg/day
Dog [6]; [25]
  LEL: 0.578 mg/kg/day
  LOAEL: 0.578 mg/kg/day
Dog [6]; [26]
  NEL: 0.061 mg/kg/day
  NOAEL: 0.061 mg/kg/day
Mouse [7]; [27]
  LOAEL: 14.9 mg/kg/day
  NEL: 0.337 mg/kg/day
  NOAEL: 3.25 mg/kg/day
Mouse [7]; systemic / pathology gross / skin / discolored
  LEL: 3.25 mg/kg/day
Dog [8]; [28]
  LEL: 0.125 mg/kg/day
  LOAEL: 0.125 mg/kg/day
  NEL: 0.0125 mg/kg/day
  NOAEL: 0.0125 mg/kg/day
Dog [8]; [29]
  LEL: 1.25 mg/kg/day
  LOAEL: > 1.25 mg/kg/day
  NEL: 0.125 mg/kg/day
  NOAEL: ≥ 1.25 mg/kg/day
Rat [9]; [30]
  LEL: 0.311 mg/kg/day
  LOAEL: 0.311 mg/kg/day
  NEL: 0.154 mg/kg/day
  NOAEL: 0.154 mg/kg/day
Rat [9]; [31]
  LEL: 0.416 mg/kg/day
  LOAEL: > 0.416 mg/kg/day
  NEL: 0.208 mg/kg/day
  NOAEL: ≥ 0.416 mg/kg/day
Rat [10]; [32]
  LEL: 0.66 mg/kg/day
  LOAEL: 0.66 mg/kg/day
Rat [10]; [33]
  NEL: 0.132 mg/kg/day
  NOAEL: 0.132 mg/kg/day
Rat [10]; [23]
  LOAEL: 0.958 mg/kg/day
Rat [10]; [34]
  LEL: 0.958 mg/kg/day
  NEL: 0.477 mg/kg/day
  NOAEL: 0.477 mg/kg/day

## ClC=C(Cl)Cl [Trichloroethylene]
Rat [11]
  LEL: 1800 ppm
  LOAEL: > 1800 ppm
  NEL: < 1800 ppm
  NOAEL: ≥ 1800 ppm

## ClC1=C(Cl)C2(Cl)C3C(Cl)C=CC3C1(Cl)C2(Cl)Cl (stereo not given) [Heptachlor]
Mouse [12]
  LEL: 2.07 mg/kg/day
  LOAEL: > 2.07 mg/kg/day
  NEL: 0.915 mg/kg/day
  NOAEL: ≥ 2.07 mg/kg/day
mink; [35]
  LOAEL: > 25 mg/kg/day
  NOAEL: ≥ 25 mg/kg/day
mink; [36]
  LEL: 6.25 mg/kg/day
  NEL: < 6.25 mg/kg/day
mink; [37]
  LEL: 12.5 mg/kg/day
  LOAEL: > 25 mg/kg/day
  NEL: 6.25 mg/kg/day
  NOAEL: ≥ 25 mg/kg/day
mink; group: reproductive, reproductive / reproductive performance / resorptions / resorptions
  NEL: 6.25 mg/kg/day
mink; [38]
  LEL: 12.5 mg/kg/day
  LOAEL: > 25 mg/kg/day
  NOAEL: ≥ 25 mg/kg/day
Rat [13]; [39]
  LEL: 1.28 mg/kg/day
  NEL: < 1.28 mg/kg/day
Rat [13]; [40]
  LOAEL: > 2.56 mg/kg/day
  NOAEL: ≥ 2.56 mg/kg/day
Rat [14]; [41]
  LOAEL: > 3 mg/kg/day
  NOAEL: ≥ 3 mg/kg/day
Rat [14]; [42]
  LEL: 0.03 mg/kg/day
  NEL: < 0.03 mg/kg/day
